Source: patent US20250320213A1, “Nitrogen-Containing Heterocyclic Compounds” (Pfizer Inc., priority 2024, published 2025)

How the values were obtained:
[1] = target: T1, STAT6 (Homo sapiens, UniProt P42226); assay: STAT6 Reporter Luciferase Assay (IL-13 stimulated HaCaT keratinocyte NanoLuc reporter cells); type: cell-based; conditions: STAT6 NanoLuc luciferase reporter, IL-13 stimulated HaCaT keratinocyte cells; read-out: Reporter EC50
T1 construct: stably transfected HaCaT keratinocyte cell line, which expresses NanoLuc luciferase reporter gene under the transcriptional control of the STAT6 responsive promoter; endogenous in cells; host or cells: HaCaT keratinocyte reporter cell line (stably transfected with a NanoLuc reporter)
T1 sequence (P42226 1-847): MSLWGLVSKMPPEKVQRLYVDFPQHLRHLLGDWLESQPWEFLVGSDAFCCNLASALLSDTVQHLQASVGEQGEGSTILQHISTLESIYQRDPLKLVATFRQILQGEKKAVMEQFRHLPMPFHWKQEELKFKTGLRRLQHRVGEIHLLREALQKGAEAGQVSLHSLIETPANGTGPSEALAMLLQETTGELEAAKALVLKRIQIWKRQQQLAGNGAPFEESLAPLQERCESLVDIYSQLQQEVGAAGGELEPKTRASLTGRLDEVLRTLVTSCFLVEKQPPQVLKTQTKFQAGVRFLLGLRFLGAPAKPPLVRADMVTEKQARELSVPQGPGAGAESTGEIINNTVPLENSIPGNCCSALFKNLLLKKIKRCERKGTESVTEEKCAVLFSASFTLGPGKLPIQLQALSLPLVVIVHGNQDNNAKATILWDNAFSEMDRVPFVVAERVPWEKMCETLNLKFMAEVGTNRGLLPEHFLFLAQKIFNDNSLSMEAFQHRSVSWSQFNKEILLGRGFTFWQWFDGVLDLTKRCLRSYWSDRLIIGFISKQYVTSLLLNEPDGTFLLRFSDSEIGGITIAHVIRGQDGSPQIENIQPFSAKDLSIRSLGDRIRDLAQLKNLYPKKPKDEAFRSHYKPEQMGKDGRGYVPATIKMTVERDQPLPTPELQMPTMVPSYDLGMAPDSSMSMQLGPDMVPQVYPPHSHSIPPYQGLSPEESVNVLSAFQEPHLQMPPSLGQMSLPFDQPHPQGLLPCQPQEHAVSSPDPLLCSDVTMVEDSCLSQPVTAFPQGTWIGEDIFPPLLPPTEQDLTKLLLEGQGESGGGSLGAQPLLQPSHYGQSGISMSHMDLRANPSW
Outline: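 Cells were plated overnight, washed, exposed to compound for two hours, stimulated with IL-13 (0.12 nM final) for four hours at 37 °C, and then lysed with Nano-Glo substrate for 15 min before luminescence reading.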

[2] = tested on: CCL17 secretion in peripheral human whole blood; assay: Human Whole Blood (HWB) CCL17 TR-FRET Assay (IL-13 stimulated CCL17 secretion); type: cell-based; conditions: Homo sapiens, 48 h, inhibition of CCL17 secretion in human whole blood, 10 ng/mL IL13, 48 hours
Outline: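 Heparin-anticoagulated human blood; cpd 11-pt 3-fold dilution, duplicate, 2 h 37 °C preinc; IL-13 10 ng/mL final, 48 h 37 °C; spin, serum CCL17 by TR-FRET ELISA, 16 h RT, 665/615 ratio; IC50.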

SMILES | EC50 [1] | IC50 [2]
CN(C)C(=O)Nc1ccc(CNC(=O)c2nn(C3CCC3)c3c2CN(c2ccc(C(=O)N(C)C)cn2)CC3)cc1 [Example 96, 1-cyclobutyl-5-(5-(dimethylcarbamoyl)pyridin-2-yl)-N-(4-(3,3-dimethylureido)benzyl)-4,5,6,7-tetrahydro-1H-pyrazolo[4,3-c]pyridine-3-carboxamide] | 5 nM | 66 nM
CC(C)n1nc(C(=O)NCc2ccc(NC(=O)N(C)C)cc2)c2c1CCN(c1ccc(N3CC4(CC4)CC3=O)cn1)C2 [Example 97, N-(4-(3,3-dimethylureido)benzyl)-1-isopropyl-5-(5-(6-oxo-5-azaspiro[2.4]heptan-5-yl)pyridin-2-yl)-4,5,6,7-tetrahydro-1H-pyrazolo[4,3-c]pyridine-3-carboxamide] | 65 nM | 3480 nM
CC(C)n1nc(C(=O)NCc2ccc(NC(=O)N(C)C)cc2)c2c1CCN(c1ccc(N3CC[C@@H](F)C3=O)cn1)C2 [Example 98, (R)-N-(4-(3,3-dimethylureido)benzyl)-5-(5-(3-fluoro-2-oxopyrrolidin-1-yl)pyridin-2-yl)-1-isopropyl-4,5,6,7-tetrahydro-1H-pyrazolo[4,3-c]pyridine-3-carboxamide] | 48 nM | 573 nM
CC1COC(=O)N1c1ccc(N2CCc3c(c(C(=O)NCc4ccc(NC(=O)N(C)C)cc4)nn3C(C)C)C2)nc1 (stereo not shown) [Example 99, N-(4-(3,3-dimethylureido)benzyl)-1-isopropyl-5-(5-(4-methyl-2-oxooxazolidin-3-yl)pyridin-2-yl)-4,5,6,7-tetrahydro-1H-pyrazolo[4,3-c]pyridine-3-carboxamide] | 17 nM | 453 nM
CC(C)n1nc(C(=O)NCc2ccc(NC(=O)N(C)C)cc2)c2c1CCN(c1ccc(N3CCOCCC3=O)cn1)C2 [Example 100, N-(4-(3,3-dimethylureido)benzyl)-1-isopropyl-5-(5-(5-oxo-1,4-oxazepan-4-yl)pyridin-2-yl)-4,5,6,7-tetrahydro-1H-pyrazolo[4,3-c]pyridine-3-carboxamide] | 174 nM | 1800 nM
CC(C)n1nc(C(=O)NCc2ccc(NC(=O)N(C)C)cc2)c2c1CCN(c1ccc(N3CCOCC3=O)cn1)C2 [Example 103, N-(4-(3,3-dimethylureido)benzyl)-1-isopropyl-5-(5-(3-oxomorpholino)pyridin-2-yl)-4,5,6,7-tetrahydro-1H-pyrazolo[4,3-c]pyridine-3-carboxamide] | 47 nM | 535 nM
CN(C)C(=O)Nc1ccc(CNC(=O)c2nn(C34CC(C3)C4)c3c2CN(c2ccc(C(=O)N(C)C)cn2)CC3)cc1 [Example 104, 1-(bicyclo[1.1.1]pentan-1-yl)-5-(5-(dimethylcarbamoyl)pyridin-2-yl)-N-(4-(3,3-dimethylureido)benzyl)-4,5,6,7-tetrahydro-1H-pyrazolo[4,3-c]pyridine-3-carboxamide] | 7 nM | 107 nM
CN(C)C(=O)Nc1ccc(CNC(=O)c2nn(C)c3c2CN(c2ccc(C(=O)N(C)C)cn2)CC3(C)C)cc1 [Example 105, 5-(5-(dimethylcarbamoyl)pyridin-2-yl)-N-(4-(3,3-dimethylureido)benzyl)-1,7,7-trimethyl-4,5,6,7-tetrahydro-1H-pyrazolo[4,3-c]pyridine-3-carboxamide] | 3 nM | 21 nM
CN(C)C(=O)Nc1ccc(CNC(=O)c2nn(C)c3c2CN(c2ccc(C(=O)N(C)C)cn2)CC32CC2)cc1 [Example 106, 5′-(5-(dimethylcarbamoyl)pyridin-2-yl)-N-(4-(3,3-dimethylureido)benzyl)-1′-methyl-1′,4′,5′,6′-tetrahydrospiro[cyclopropane-1,7′-pyrazolo[4,3-c]pyridine]-3′-carboxamide] | 8 nM | 49 nM
CC(C)n1nc(C(=O)NCc2ccc(NC(=O)N(C)C)cc2)c2c1CCN(c1ccc(N3CCOC3=O)cn1)C2 [Example 107, N-(4-(3,3-dimethylureido)benzyl)-1-isopropyl-5-(5-(2-oxooxazolidin-3-yl)pyridin-2-yl)-4,5,6,7-tetrahydro-1H-pyrazolo[4,3-c]pyridine-3-carboxamide] | 13 nM | 219 nM

Further lines, results first:

EC50 [1] | IC50 [2] | SMILES
30 nM | 536 nM | CC(C)n1nc(C(=O)NCc2ccc(NC(=O)N(C)C)cc2)c2c1CCN(c1ccc(-n3ccccc3=O)cn1)C2 [Example 108, N-(4-(3,3-dimethylureido)benzyl)-1-isopropyl-5-(2-oxo-2H-[1,3′-bipyridin]-6′-yl)-4,5,6,7-tetrahydro-1H-pyrazolo[4,3-c]pyridine-3-carboxamide]
117 nM | > 30000 nM | CC(C)n1nc(C(=O)NCc2ccc(NC(=O)N(C)C)cc2)c2c1CCN(c1ccc(N3C(=O)C4CCC3C4)cn1)C2 (stereo not shown) [Example 109, N-(4-(3,3-dimethylureido)benzyl)-1-isopropyl-5-(5-(3-oxo-2-azabicyclo[2.2.1]heptan-2-yl)pyridin-2-yl)-4,5,6,7-tetrahydro-1H-pyrazolo[4,3-c]pyridine-3-carboxamide]
523 nM | 2090 nM | CC(C)n1nc(C(=O)NCc2ccc(NC(=O)N(C)C)cc2)c2c1CCN(c1ccc(N3C(=O)OCC3CO)cn1)C2 (stereo not shown) [Example 110, N-(4-(3,3-dimethylureido)benzyl)-5-(5-(4-(hydroxymethyl)-2-oxooxazolidin-3-yl)pyridin-2-yl)-1-isopropyl-4,5,6,7-tetrahydro-1H-pyrazolo[4,3-c]pyridine-3-carboxamide]
20 nM | 211 nM | CC(C)n1nc(C(=O)NCc2ccc(NC(=O)N(C)C)cc2)c2c1C[C@@H](C)N(c1ccc(C(=O)N(C)C)cn1)C2 [Example 114, (R)-5-(5-(dimethylcarbamoyl)pyridin-2-yl)-N-(4-(3,3-dimethylureido)benzyl)-1-isopropyl-6-methyl-4,5,6,7-tetrahydro-1H-pyrazolo[4,3-c]pyridine-3-carboxamide]
1 nM | 4 nM | C[C@H]1CN(c2ncc(C(=O)N(C)C)cn2)Cc2c(C(=O)NCc3ccc(NC(=O)N(C)C)cc3)nn(CC3CC3)c21 [Example 120, (S)-1-(cyclopropylmethyl)-5-(5-(dimethylcarbamoyl)pyrimidin-2-yl)-N-(4-(3,3-dimethylureido)benzyl)-7-methyl-4,5,6,7-tetrahydro-1H-pyrazolo[4,3-c]pyridine-3-carboxamide]
1 nM | 4 nM | CCn1nc(C(=O)NCc2ccc(NC(=O)N(C)C)cc2)c2c1[C@@H](C)CN(c1ncc(C(=O)N(C)C)cn1)C2 [Example 125, (S)-5-(5-(Dimethylcarbamoyl)pyrimidin-2-yl)-N-(4-(3,3-dimethylureido)benzyl)-1-ethyl-7-methyl-4,5,6,7-tetrahydro-1H-pyrazolo[4,3-c]pyridine-3-carboxamide]
1 nM | 5 nM | CCn1nc(C(=O)NCc2ccc(NC(=O)N(C)C)cc2)c2c1[C@@H](C)CN(c1ccc(C(=O)N(C)C)cn1)C2 [Example 126, (S)-5-(5-(Dimethylcarbamoyl)pyridin-2-yl)-N-(4-(3,3-dimethylureido)benzyl)-1-ethyl-7-methyl-4,5,6,7-tetrahydro-1H-pyrazolo[4,3-c]pyridine-3-carboxamide]
1 nM | 4 nM | CC(C)n1nc(C(=O)NCc2ccc(NC(=O)N(C)C)cc2)c2c1[C@@H](C)CN(c1ncc(C(=O)N(C)C)cn1)C2 [Example 127]
1 nM | 9 nM | CCn1nc(C(=O)NCc2ccc(NC(=O)N(C)C)cc2)c2c1[C@@H](C)CN(c1ccc(N3CCCC3=O)cn1)C2 [Example 129, (S)-N-(4-(3,3-dimethylureido)benzyl)-1-ethyl-7-methyl-5-(5-(2-oxopyrrolidin-1-yl)pyridin-2-yl)-4,5,6,7-tetrahydro-1H-pyrazolo[4,3-c]pyridine-3-carboxamide]
0.2 nM | 3.6 nM | CC(C)n1nc(C(=O)NCc2ccc(NC(=O)N3CCN(C)CC3)cc2)c2c1[C@@H](C)CN(c1ccc(C(=O)N(C)C)cc1)C2 [Example 132, (S)-5-(4-(Dimethylcarbamoyl)phenyl)-1-isopropyl-7-methyl-N-(4-(4-methylpiperazine-1-carboxamido)benzyl)-4,5,6,7-tetrahydro-1H-pyrazolo[4,3-c]pyridine-3-carboxamide]
